# Target: T1, Interleukin-1 receptor-associated kinase 4 (Homo sapiens, UniProt Q9NWZ3)
# T1 sequence (Q9NWZ3 whole entry): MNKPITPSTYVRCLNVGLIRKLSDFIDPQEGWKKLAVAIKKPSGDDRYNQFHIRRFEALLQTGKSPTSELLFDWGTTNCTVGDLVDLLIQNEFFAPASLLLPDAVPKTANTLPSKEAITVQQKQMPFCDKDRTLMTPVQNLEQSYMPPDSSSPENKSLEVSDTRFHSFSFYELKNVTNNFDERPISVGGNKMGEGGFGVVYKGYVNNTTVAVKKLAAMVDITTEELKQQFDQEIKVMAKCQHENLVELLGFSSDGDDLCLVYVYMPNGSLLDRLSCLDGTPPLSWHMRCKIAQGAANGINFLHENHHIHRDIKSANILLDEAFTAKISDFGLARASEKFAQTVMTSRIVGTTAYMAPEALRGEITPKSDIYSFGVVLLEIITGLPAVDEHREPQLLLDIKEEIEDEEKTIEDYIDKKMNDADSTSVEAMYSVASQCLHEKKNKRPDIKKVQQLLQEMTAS
# Test: Kinase Assay: The kinase activity of IRAK-4 is determined by its ability to catalyze the phosphorylation of a fluorescent polypeptide substrate. The extent of phosphorylation is measured using the IMAP technology (Molecular Devices) where the phosphorylated fluorescent substrate binds to the large M(III)-based nanoparticles which reduces the rotational speed of the substrate and thus increases its fluorescent polarization (FP). 20 μl reaction mixture contains 10 mM TriHCl, pH 7.2, 0.5 nM GST tagged IRAK-4 (SignalChem), 100 nM fluorescent peptide substrate (RP7030, Molecular Devices), 100 μM ATP, 1 mM DTT, 1 mM MgCl2, and 0.01% Tween 20. The reaction is initiated by the addition of ATP. After incubation for 30 minutes at 25° C., 60 μl of Progressive IMAP Reagent (Molecular Devices) is added to stop the reaction. Change in RP7030's FP is determined by a FP reader (Analyst HT, LH, BioSystems).
row,SMILES,IC50
1,Cc1ccc(-n2nc(C3CCN(S(=O)(=O)C4CC4)CC3)cc2NC(=O)c2cnn3cccnc23)nc1,< 100 nM
2,CS(=O)(=O)N1CCC(c2cc(NC(=O)c3cnn4cccnc34)n(-c3ccc(CN)cn3)n2)CC1,< 100 nM
3,Cc1ccc(-n2nc(C3CCN(C(C)C(=O)N4CCCC4)CC3)cc2NC(=O)c2cnn3cccnc23)cc1 (configuration not stated),< 100 nM
4,O=C(Nc1cc(C2CCN(C3CCC3)CC2)nn1-c1ccc(C2CC2)cn1)c1cnn2cccnc12,< 100 nM
5,CCOC(=O)N1CCC(N2CCC(c3cc(NC(=O)c4cnn5cccnc45)n(-c4ccc(C)cc4)n3)CC2)CC1,< 100 nM
6,Cc1ccc(-n2nc(C3CCN(C)CC3)cc2NC(=O)c2cnn3cccnc23)c(F)c1,< 1000 nM
7,CS(=O)(=O)N1CCC(c2cc(NC(=O)c3cnn4cccnc34)n(CCN)n2)CC1,< 1000 nM
8,COc1ccc(-n2nc(C3CCNCC3)cc2NC(=O)c2cnn3cc(C4CC4)cnc23)cc1,< 1000 nM
9,C#Cc1cnc2c(C(=O)Nc3cc(C4CCN(S(C)(=O)=O)CC4)nn3-c3ccc(C)cn3)cnn2c1,< 100 nM
10,Cc1ccc(-n2nc(C3CCN(CC(C)C)CC3)cc2NC(=O)c2cnn3cccnc23)nc1,< 100 nM
11,CNC(C)c1ccc(-n2nc(C3CCN(S(C)(=O)=O)CC3)cc2NC(=O)c2cnn3cccnc23)nc1 (configuration not stated),< 1000 nM
12,COc1ccc(-n2nc(C3CCN(S(C)(=O)=O)CC3)cc2NC(=O)c2cnn3cccnc23)nc1,< 1000 nM
13,Cc1cnc(-n2nc(C3CCNCC3)cc2NC(=O)c2cnn3cccnc23)nc1,> 1000 nM
14,CS(=O)(=O)N1CCC(c2cc(NC(=O)c3cnn4cccnc34)n(-c3ccc(CO)cn3)n2)CC1,< 100 nM
15,Cc1ccc(-n2nc(C3CCN(S(C)(=O)=O)CC3)cc2NC(=O)c2cnn3cc(Br)cnc23)cc1,< 1000 nM
16,Cc1ccc(-n2nc(C3CCN(C4CCC(C(F)(F)F)CC4)CC3)cc2NC(=O)c2cnn3cccnc23)cc1 (configuration not stated),< 100 nM
17,Cc1ccc(-n2nc(C3CCN(S(C)(=O)=O)CC3)cc2NC(=O)c2cnn3cc(Br)cnc23)nc1,< 100 nM
18,Cc1ccc(-n2nc(C3CCN(C(C)C(=O)N4CCCCC4)CC3)cc2NC(=O)c2cnn3cccnc23)cc1 (configuration not stated),< 1000 nM
19,Cc1cnc(-n2nc(C3CCN(S(C)(=O)=O)CC3)cc2NC(=O)c2cnn3cccnc23)cn1,> 1000 nM
20,Cc1ccc(-n2nc(C3CCN(C4CCN(C5CC5)CC4)CC3)cc2NC(=O)c2cnn3cccnc23)cc1,< 1000 nM
21,CC(=O)N1CCC(N2CCC(c3cc(NC(=O)c4cnn5cccnc45)n(-c4ccc(C)cc4)n3)CC2)CC1,< 100 nM

# Next, values leading:
row,IC50,SMILES
1,< 1000 nM,CS(=O)(=O)N1CCC(c2cc(NC(=O)c3cnn4cccnc34)n(-c3ccccc3)n2)CC1
2,< 1000 nM,Cc1ccc(-n2nc(C3CCCN(Cc4cn[nH]c4)C3)cc2NC(=O)c2cnn3cccnc23)cc1 (configuration not stated)
3,< 1000 nM,Cc1ccc(-n2nc(C3CCN(S(C)(=O)=O)C3)cc2NC(=O)c2cnn3cccnc23)cc1 (configuration not stated)
4,< 1000 nM,COc1ccc(CN2CCC(c3cc(NC(=O)c4cnn5cccnc45)n(-c4ccc(C)cc4)n3)CC2)cn1
5,< 100 nM,Cc1ccc(-n2nc(-c3ccnc(CN4CCCCC4)c3)cc2NC(=O)c2cnn3cccnc23)cc1
6,< 1000 nM,Cc1ccc(-n2nc(C3CCN(C(C)C(C)C)CC3)cc2NC(=O)c2cnn3cccnc23)cc1 (configuration not stated)
7,< 100 nM,Cc1ccc(-n2nc(C3CCCN(Cc4ccc(S(C)(=O)=O)cc4)C3)cc2NC(=O)c2cnn3cccnc23)cc1 (configuration not stated)
8,< 100 nM,Cc1ccc(-n2nc(C3CCCN(Cc4ccn[nH]4)C3)cc2NC(=O)c2cnn3cccnc23)cc1 (configuration not stated)
9,< 1000 nM,Cc1ccc(-n2nc(C3CCCN(CC4CCOC4)C3)cc2NC(=O)c2cnn3cccnc23)cc1 (configuration not stated)
10,< 1000 nM,Cc1ccc(-n2nc(C3CCCN(Cc4ncco4)C3)cc2NC(=O)c2cnn3cccnc23)cc1 (configuration not stated)
11,< 1000 nM,COc1ccc(CN2CCCC(c3cc(NC(=O)c4cnn5cccnc45)n(-c4ccc(C)cc4)n3)C2)cn1 (configuration not stated)
12,< 1000 nM,COc1ncc(CN2CCCC(c3cc(NC(=O)c4cnn5cccnc45)n(-c4ccc(C)cc4)n3)C2)cn1 (configuration not stated)
13,< 1000 nM,Cc1ccc(-n2nc(C3CCCN(Cc4cccnc4)C3)cc2NC(=O)c2cnn3cccnc23)cc1 (configuration not stated)
14,< 1000 nM,Cc1ccc(-n2nc(C3CCCN(Cc4ccncc4)C3)cc2NC(=O)c2cnn3cccnc23)cc1 (configuration not stated)
15,< 1000 nM,Cc1ccc(-n2nc(C3CCN(S(C)(=O)=O)CC3)cc2NC(=O)c2cnn3cc(C)cnc23)cc1
16,< 1000 nM,Cc1ccc(-n2nc(C3CCCN(Cc4cnc(N(C)C)s4)C3)cc2NC(=O)c2cnn3cccnc23)cc1 (configuration not stated)
17,< 100 nM,Cc1ccc(-n2nc(C3CCCN(Cc4cccc5c4CNC5=O)C3)cc2NC(=O)c2cnn3cccnc23)cc1 (configuration not stated)
18,< 1000 nM,Cc1ccc(-n2nc(C3CCN(C4CNC4)CC3)cc2NC(=O)c2cnn3cccnc23)cc1
19,< 1000 nM,CCn1nccc1CN1CCCC(c2cc(NC(=O)c3cnn4cccnc34)n(-c3ccc(C)cc3)n2)C1 (configuration not stated)
20,< 1000 nM,Cc1ccc(-n2nc(-c3cncc(N4CCN(C)CC4)c3)cc2NC(=O)c2cnn3cccnc23)cc1
21,< 1000 nM,Cc1ccc(-n2nc(C3CCN(C(C)c4cccc(F)n4)CC3)cc2NC(=O)c2cnn3cccnc23)cc1 (configuration not stated)
22,< 1000 nM,Cc1ccc(-n2nc(C3CCCN(Cc4cccnc4F)C3)cc2NC(=O)c2cnn3cccnc23)cc1 (configuration not stated)
23,< 1000 nM,Cc1ccc(-n2nc(C3CCCN(Cc4ccccn4)C3)cc2NC(=O)c2cnn3cccnc23)cc1 (configuration not stated)
24,< 100 nM,Cc1ccc(-n2nc(-c3ccc(S(=O)(=O)N4CCOCC4)cc3)cc2NC(=O)c2cnn3cccnc23)cc1
25,< 1000 nM,Cc1ccc(-n2nc(C3CCCN(Cc4ccc(F)cn4)C3)cc2NC(=O)c2cnn3cccnc23)cc1 (configuration not stated)
26,< 1000 nM,Cc1ccc(-n2nc(C3CCCN(Cc4ccc5c(c4)C(=O)NC5)C3)cc2NC(=O)c2cnn3cccnc23)cc1 (configuration not stated)

# Reference: ChEMBL document CHEMBL3886319, “Amidopyrazole inhibitors of interleukin receptor-associated kinases” (2015)
